Legend:
[1] = test system: Puccinia recondita f sp. tritici; experiment: Test A: wheat leaf rust, preventive spray on wheat seedlings, visual disease rating; type: in vivo; conditions: 50 ppm (*), 100 = 100% disease control, 0 = no control
Source text: General protocol for preparing test suspensions for Tests A-D: the test compounds were first dissolved in acetone in an amount equal to 3% of the final volume and then suspended at the desired concentration (in ppm) in acetone and purified water (50/50 mix by volume) containing 250 ppm of the surfactant Trem® 014 (polyhydric alcohol esters). The resulting test suspensions were then used in Tests A-D. The test suspension was sprayed to the point of run-off on wheat seedlings. The following day the seedlings were inoculated with a spore suspension of Puccinia recondita f sp. tritici (the causal agent of wheat leaf rust) and incubated in a saturated atmosphere at 20° C. for 24 h, and then moved to a growth chamber at 20° C. for 7 days, after which time visual disease ratings were made. In the Table, a rating of 100 indicates 100% disease control and a rating of 0 indicates no disease control (relative to the controls). A dash (−) indicates no test results. All results are for 250 ppm except where followed by an “*” which indicates 50 ppm, and where followed by an “**” which indicates 10 ppm

[2] = test system: Septoria tritici; experiment: Test B: wheat leaf blotch, preventive spray on wheat seedlings, visual disease rating; type: in vivo; conditions: Zymoseptoria tritici, 50 ppm (*), 100 = 100% disease control, 0 = no control
Source text: General protocol for preparing test suspensions for Tests A-D: the test compounds were first dissolved in acetone in an amount equal to 3% of the final volume and then suspended at the desired concentration (in ppm) in acetone and purified water (50/50 mix by volume) containing 250 ppm of the surfactant Trem® 014 (polyhydric alcohol esters). The resulting test suspensions were then used in Tests A-D. The test suspension was sprayed to the point of run-off on wheat seedlings. The following day the seedlings were inoculated with a spore suspension of Septoria tritici (the causal agent of wheat leaf blotch) and incubated in a saturated atmosphere at 24° C. for 48 h, and then moved to a growth chamber at 20° C. for 19 days, after which time visual disease ratings were made. In the Table, a rating of 100 indicates 100% disease control and a rating of 0 indicates no disease control (relative to the controls). A dash (−) indicates no test results. All results are for 250 ppm except where followed by an “*” which indicates 50 ppm, and where followed by an “**” which indicates 10 ppm

[3] = test system: Botrytis cinerea; experiment: Test C: tomato Botrytis, preventive spray on tomato seedlings, visual disease rating; type: in vivo; conditions: Botrytis cinerea, 50 ppm (*), 100 = 100% disease control, 0 = no control
Source text: General protocol for preparing test suspensions for Tests A-D: the test compounds were first dissolved in acetone in an amount equal to 3% of the final volume and then suspended at the desired concentration (in ppm) in acetone and purified water (50/50 mix by volume) containing 250 ppm of the surfactant Trem® 014 (polyhydric alcohol esters). The resulting test suspensions were then used in Tests A-D. The test suspension was sprayed to the point of run-off on tomato seedlings. The following day the seedlings were inoculated with a spore suspension of Botrytis cinerea (the causal agent of tomato Botrytis) and incubated in a saturated atmosphere at 20° C. for 48 h, and then moved to a growth chamber at 24° C. for 3 days, after which time visual disease ratings were made. In the Table, a rating of 100 indicates 100% disease control and a rating of 0 indicates no disease control (relative to the controls). A dash (−) indicates no test results. All results are for 250 ppm except where followed by an “*” which indicates 50 ppm, and where followed by an “**” which indicates 10 ppm

[4] = test system: Blumeria graminis f sp. tritici; experiment: Test D: wheat powdery mildew, preventive spray on wheat seedlings, visual disease rating; type: in vivo; conditions: Blumeria graminis, 50 ppm (*), 100 = 100% disease control, 0 = no control
Source text: General protocol for preparing test suspensions for Tests A-D: the test compounds were first dissolved in acetone in an amount equal to 3% of the final volume and then suspended at the desired concentration (in ppm) in acetone and purified water (50/50 mix by volume) containing 250 ppm of the surfactant Trem® 014 (polyhydric alcohol esters). The resulting test suspensions were then used in Tests A-D. The test suspension was sprayed to the point of run-off on wheat seedlings. The following day the seedlings were inoculated with a spore dust of Blumeria graminis f sp. tritici, (also known as Erysiphe graminis f. sp. tritici, the causal agent of wheat powdery mildew) and incubated in a growth chamber at 20° C. for 8 days, after which time visual disease ratings were made. In the Table, a rating of 100 indicates 100% disease control and a rating of 0 indicates no disease control (relative to the controls). A dash (−) indicates no test results. All results are for 250 ppm except where followed by an “*” which indicates 50 ppm, and where followed by an “**” which indicates 10 ppm

Row | Structure (SMILES) | pest or weed control at 50 ppm [1] [%] | pest or weed control at 50 ppm [2] [%] | pest or weed control at 50 ppm [3] [%] | pest or weed control at 50 ppm [4] [%] | melting point [°C]
1 | CCC(C)c1c(C(O)c2c(F)cc(F)cc2F)c(C)nn1C (stereo not drawn) [Compound 23, 1,3-dimethyl-5-(1-methylpropyl)-α-(2,4,6-trifluorophenyl)-1H-pyrazole-4-methanol] | 97 | 94 | 31 | 96 | 114 to 117
2 | CCC(C)c1c(C(O)c2c(Cl)cccc2Cl)c(C)nn1C (stereo not drawn) [Compound 24, α-(2,6-dichlorophenyl)-1,3-dimethyl-5-(1-methylpropyl)-1H-pyrazole-4-methanol] | 99 | 69 | 40 | 84 | 175 to 178

— patent publication US20170037014A1, “FUNGICIDAL PYRAZOLES” (E. I. DU PONT DE NEMOURS AND COMPANY, priority 2014, published 2017)
